Data: PubChem BioAssay AID2060492 (Molecular Pharmacology Branch, DTP, NCI, 2025)

Tested on: 695427-040-R-J1-PDC complex spheroids, viability percent T/C
Assay: Anticancer human tumor 695427-040-R-J1-PDC patient-derived colon adenocarcinoma cell line growth inhibition [GQUAD]
Conditions: for IC50: curve of first compound; for viability, T/C: stronger effect = lower value
Outline: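 Multi-cell-type spheroids of tumor cells with HUVEC and mesenchymal stem cells, treated with drug combinations. Concentrations descend in half-log steps from near clinical Cmax, or from 10 microM where Cmax is unknown; viability read-out.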

[1] = second compound 0.0316 µM, first compound 0.0316 µM
[2] = second compound 0.0316 µM, first compound 0.1 µM
[3] = second compound 0.0316 µM, first compound 0.316 µM
[4] = second compound 0.0316 µM, first compound 1 µM
[5] = second compound 0.0316 µM, first compound 3.16 µM
[6] = second compound 0.0316 µM, first compound 10 µM
[7] = second compound 0.1 µM, first compound 0.0316 µM
[8] = second compound 0.1 µM, first compound 0.1 µM
[9] = second compound 0.1 µM, first compound 0.316 µM
[10] = second compound 0.1 µM, first compound 1 µM
[11] = second compound 0.1 µM, first compound 3.16 µM
[12] = second compound 0.1 µM, first compound 10 µM
[13] = second compound 0.316 µM, first compound 0.0316 µM
[14] = second compound 0.316 µM, first compound 0.1 µM
[15] = second compound 0.316 µM, first compound 0.316 µM
[16] = second compound 0.316 µM, first compound 1 µM
[17] = second compound 0.316 µM, first compound 3.16 µM
[18] = second compound 0.316 µM, first compound 10 µM
[19] = second compound 1 µM, first compound 0.0316 µM
[20] = second compound 1 µM, first compound 0.1 µM
[21] = second compound 1 µM, first compound 0.316 µM
[22] = second compound 1 µM, first compound 1 µM
[23] = second compound 1 µM, first compound 3.16 µM
[24] = second compound 1 µM, first compound 10 µM
[25] = second compound 3.16 µM, first compound 0.0316 µM
[26] = second compound 3.16 µM, first compound 0.1 µM
[27] = second compound 3.16 µM, first compound 0.316 µM
[28] = second compound 3.16 µM, first compound 1 µM
[29] = second compound 3.16 µM, first compound 3.16 µM
[30] = second compound 3.16 µM, first compound 10 µM
[31] = second compound 10 µM, first compound 0.0316 µM
[32] = second compound 10 µM, first compound 0.1 µM
[33] = second compound 10 µM, first compound 0.316 µM
[34] = second compound 10 µM, first compound 1 µM
[35] = second compound 10 µM, first compound 3.16 µM
[36] = second compound 10 µM, first compound 10 µM
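Note: spheroids exposed to compounds for seven days before readout.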

SMILES: C#Cc1c(F)ccc2cc(O)cc(-c3ncc4c(N5CC6CCC(C5)N6)nc(OCC56CCCN5CC(F)C6)nc4c3F)c12 (stereo unspecified) + Cc1cnc(CNC(=O)c2c(=O)c3ccc(N4CCCN(C)CC4)nc3n3c2sc2ccccc23)cn1
- IC50 (second compound 0.0316 µM): > 10 µM
- IC50 (second compound 0.1 µM): > 10 µM
- IC50 (second compound 0.316 µM): > 10 µM
- IC50 (second compound 1 µM): > 10 µM
- IC50 (second compound 3.16 µM): < 0.0316 µM
- IC50 (second compound 10 µM): < 0.0316 µM
- viability, T/C [1]: 103%
- viability, T/C [2]: 94.4%
- viability, T/C [3]: 87.1%
- viability, T/C [4]: 73.2%
- viability, T/C [5]: 76.9%
- viability, T/C [6]: 65.4%
- viability, T/C [7]: 110%
- viability, T/C [8]: 69.8%
- viability, T/C [9]: 85%
- viability, T/C [10]: 71.5%
- viability, T/C [11]: 71.4%
- viability, T/C [12]: 58.7%
- viability, T/C [13]: 82.5%
- viability, T/C [14]: 78.9%
- viability, T/C [15]: 51.1%
- viability, T/C [16]: 65.7%
- viability, T/C [17]: 63.2%
- viability, T/C [18]: 52.2%
- viability, T/C [19]: 79.8%
- viability, T/C [20]: 52.5%
- viability, T/C [21]: 61.8%
- viability, T/C [22]: 60.4%
- viability, T/C [23]: 65%
- viability, T/C [24]: 46.6%
- viability, T/C [25]: 37.6%
- viability, T/C [26]: 51.7%
- viability, T/C [27]: 47.2%
- viability, T/C [28]: 33.4%
- viability, T/C [29]: 47%
- viability, T/C [30]: 30.4%
- viability, T/C [31]: 22.1%
- viability, T/C [32]: 29.2%
- viability, T/C [33]: 41.9%
- viability, T/C [34]: 31.3%
- viability, T/C [35]: 29.9%
- viability, T/C [36]: 0.83%

SMILES: CC(=O)O[C@H]1C(=O)[C@@]2(C)[C@H]([C@H](OC(=O)c3ccccc3)[C@]3(O)C[C@H](OC(=O)[C@H](O)[C@@H](NC(=O)c4ccccc4)c4ccccc4)C(C)=C1C3(C)C)[C@]1(OC(C)=O)CO[C@@H]1C[C@@H]2O + Cc1cnc(CNC(=O)c2c(=O)c3ccc(N4CCCN(C)CC4)nc3n3c2sc2ccccc23)cn1
- IC50 (second compound 0.0316 µM): > 10 µM
- IC50 (second compound 0.1 µM): > 10 µM
- IC50 (second compound 0.316 µM): > 10 µM
- IC50 (second compound 1 µM): > 10 µM
- IC50 (second compound 3.16 µM): < 0.0316 µM
- IC50 (second compound 10 µM): < 0.0316 µM
- viability, T/C [1]: 102%
- viability, T/C [2]: 84.2%
- viability, T/C [3]: 85.5%
- viability, T/C [4]: 63.7%
- viability, T/C [5]: 65%
- viability, T/C [6]: 54.4%
- viability, T/C [7]: 90.5%
- viability, T/C [8]: 82.6%
- viability, T/C [9]: 91.5%
- viability, T/C [10]: 57.8%
- viability, T/C [11]: 71.8%
- viability, T/C [12]: 66.2%
- viability, T/C [13]: 80.4%
- viability, T/C [14]: 76.3%
- viability, T/C [15]: 62.3%
- viability, T/C [16]: 62%
- viability, T/C [17]: 65.7%
- viability, T/C [18]: 71.3%
- viability, T/C [19]: 65.3%
- viability, T/C [20]: 67.5%
- viability, T/C [21]: 65.9%
- viability, T/C [22]: 51.3%
- viability, T/C [23]: 76.5%
- viability, T/C [24]: 59.5%
- viability, T/C [25]: 40.7%
- viability, T/C [26]: 43.6%
- viability, T/C [27]: 56.9%
- viability, T/C [28]: 44.3%
- viability, T/C [29]: 60.4%
- viability, T/C [30]: 58%
- viability, T/C [31]: 30.6%
- viability, T/C [32]: 30%
- viability, T/C [33]: 43.5%
- viability, T/C [34]: 43.6%
- viability, T/C [35]: 44.2%
- viability, T/C [36]: 24.8%

SMILES: CCCS(=O)(=O)Nc1ccc(F)c(C(=O)c2c[nH]c3ncc(-c4ccc(Cl)cc4)cc23)c1F + Cc1cnc(CNC(=O)c2c(=O)c3ccc(N4CCCN(C)CC4)nc3n3c2sc2ccccc23)cn1
- IC50 (second compound 0.0316 µM): 8.41 µM
- IC50 (second compound 0.1 µM): > 10 µM
- IC50 (second compound 0.316 µM): > 10 µM
- IC50 (second compound 1 µM): 6.32 µM
- IC50 (second compound 3.16 µM): 3.27 µM
- IC50 (second compound 10 µM): < 0.0316 µM
- viability, T/C [1]: 101%
- viability, T/C [2]: 93.9%
- viability, T/C [3]: 107%
- viability, T/C [4]: 96%
- viability, T/C [5]: 110%
- viability, T/C [6]: 40.9%
- viability, T/C [7]: 105%
- viability, T/C [8]: 70.4%
- viability, T/C [9]: 78.9%
- viability, T/C [10]: 82.4%
- viability, T/C [11]: 98.1%
- viability, T/C [12]: 52.8%
- viability, T/C [13]: 85%
- viability, T/C [14]: 64.3%
- viability, T/C [15]: 82.9%
- viability, T/C [16]: 91.3%
- viability, T/C [17]: 101%
- viability, T/C [18]: 55.1%
- viability, T/C [19]: 64.3%
- viability, T/C [20]: 76.5%
- viability, T/C [21]: 74.1%
- viability, T/C [22]: 67.3%
- viability, T/C [23]: 96.4%
- viability, T/C [24]: 33%
- viability, T/C [25]: 43.9%
- viability, T/C [26]: 42.7%
- viability, T/C [27]: 55.2%
- viability, T/C [28]: 63.4%
- viability, T/C [29]: 52.7%
- viability, T/C [30]: 0.43%
- viability, T/C [31]: 32.7%
- viability, T/C [32]: 34.5%
- viability, T/C [33]: 38.7%
- viability, T/C [34]: 34.6%
- viability, T/C [35]: 22.8%
- viability, T/C [36]: 0.26%
